Experimental findings from patent publication US20020028836A1, “Potassium channel openers” (priority 2000, published 2002) are described below.

Data set [1] has as its system primary cultured guinea-pig urinary bladder (GPB) cells. Kind of data set: Membrane hyperpolarization (MHP) assay, DiBAC(4)3 / FLIPR. The data set is classed as cell-based. Conditions: Cavia porcellus; for EC50: concentration that elicits 50% of the maximal response for the test sample; for Emax: maximal steady-state hyperpolarization, normalized to response with 10 μM P1075 (100%). Summed up: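 Primary smooth-muscle cells from male guinea-pig bladder, grown to confluence, loaded 30 min at 37° C with 5 μM DiBAC(4)3 in HEPES buffer pH 7.4. Fluorescence drop on FLIPR followed 25 min after compound; steady-state hyperpolarization normalized to 10 μM P1075 (100%), EC50 from four-parameter fit of five concentrations.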

What is called EC50 is the concentration that produces a half-maximal response. A low value points to a more potent agent. Broadly, the Emax is the maximal effect, on the per cent scale that the assay sets. As a reminder, the melting point is the temperature, or range, at which the solid turns liquid. Take `Cc1ccc(C(=O)NC(NC(=S)Nc2cccc(C)c2)C(F)(F)F)cc1` (stereo not drawn) [Example 16, 4-methyl-N-{2,2,2-trifluoro-1-[(3-toluidinocarbothioyl)amino]ethyl}benzamide]: the melting point lay within 197 to 198 °C. Also, in data set [1], the concentration giving a half-maximal response (EC50) was found to be 370 nM and the Emax turned out to be 65%.
The molecule `O=C(NC(NC(=S)Nc1cccnc1)C(F)(F)F)c1ccc(Cl)cc1` (stereo not drawn) [Example 19, 4-chloro-N-(2,2,2-trifluoro-1-{[(3-pyridinylamino)carbothioyl]amino}ethyl)benzamide] came in with a melting point of 147 to 149 °C. In data set [1], this molecule registered an EC50 of 60 nM and an Emax of 117%.
For `Cc1ccccc1C(=O)NC(NC(=S)Nc1cccnc1)C(C)(C)C` (stereo not drawn) [Example 26, N-(2,2-dimethyl-1-{[(3-pyridinylamino)carbothioyl]amino}propyl)-2-methylbenzamide], in that order: 186 to 187 °C, 990 nM and 80%.
Taken in the same sequence, the figures for `Cc1ccc(C(=O)NC(C)NC(=S)Nc2cccc([N+](=O)[O-])c2)cc1` (stereo not drawn) [Example 29, 4-methyl-N-(1-{[(3-nitroanilino)carbothioyl]amino}ethyl)benzamide] were 172 to 175 °C, 1000 nM and 28%.
Taken in the same sequence, the figures for `Cc1ccc(C(=O)NC(Cc2ccccc2)NC(=S)Nc2cccc([N+](=O)[O-])c2)cc1` (stereo not drawn) [Example 30, 4-methyl-N-(1-{[(3-nitroanilino)carbothioyl]amino}-2-phenylethyl)benzamide] were 170 to 171 °C, 3200 nM and 22%.
For `Cc1ccc(C(=O)NC(CF)NC(=S)Nc2cccc([N+](=O)[O-])c2)cc1` (stereo not drawn) [Example 32, N-(2-fluoro-1-{[(3-nitroanilino)carbothioyl]amino}ethyl)-4-methylbenzamide], the melting point lay in the range of 148 to 155 °C. Moreover, in data set [1], it took 1000 nM to reach a half-maximal effect (EC50) and the Emax stood at 15%.
With `Cc1ccc(C(=O)NC(NC(=S)Nc2cccnc2)C(C)C)cc1` (stereo not drawn) [Example 35, 4-methyl-N-(2-methyl-1-{[(3-pyridinylamino)carbothioyl]amino}propyl)benzamide], the melting point was 184 to 186 °C. For the same molecule, in data set [1], the response was half-maximal at 13100 nM (EC50) and the Emax turned out to be 40%.
Taken in the same sequence, the figures for `CC[C@H](C)[C@H](NC(=O)c1ccc(C)cc1)NC(=S)Nc1cccnc1` [Example 36, 4-methyl-N-((1R,2S)-2-methyl-1-{[(3-pyridinylamino)carbothioyl]amino}butyl)benzamide] were 102 to 104 °C, 25500 nM and 50%.
In turn, `Cc1ccc(C(=O)NC(N2CCN(c3cccc(F)c3)C2=S)C(Cl)(Cl)Cl)cc1` (stereo not drawn) [Example 37, 4-methyl-N-{2,2,2-trichloro-1-[3-(3-fluorophenyl)-2-thioxo-1-imidazolidinyl]ethyl}benzamide] gave a melting point of 184 to 186 °C. In data set [1], this molecule returned an EC50 of 780 nM and an Emax of 85%.
For `Cc1ccccc1C(=O)NC(NC(=O)Nc1cccnc1)C(Cl)(Cl)Cl` (stereo not drawn) [Example 39, 2-methyl-N-(2,2,2-trichloro-1-{[(3-pyridinylamino)carbonyl]amino}ethyl)benzamide], in that order: 182 to 184 °C, 460 nM and 101%.
With `O=C(Nc1cccnc1)NC(NC(=O)c1ccc(Cl)cc1)C(Cl)(Cl)Cl` (stereo not drawn) [Example 41, 4-chloro-N-(2,2,2-trichloro-1-{[(3-pyridinylamino)carbonyl]amino}ethyl)benzamide], the melting point lay in the range of 166 to 168 °C. In data set [1], it took 140 nM to reach a half-maximal effect (EC50) and the Emax came to 98%.
For `Cc1ccc(C(=O)NC(NC(=O)Nc2ccccc2)C(Cl)(Cl)Cl)cc1` (stereo not drawn) [Example 42, N-{1-[(anilinocarbonyl)amino]-2,2,2-trichloroethyl}-4-methylbenzamide], in that order: 230 to 233 °C, 2140 nM and 66%.
Taken in the same sequence, the figures for `Cc1ccc(C(=O)NC(NC(=O)Nc2ccccc2F)C(Cl)(Cl)Cl)cc1` (stereo not drawn) [Example 43, 4-methyl-N-(2,2,2-trichloro-1-{[(2-fluoroanilino)carbonyl]amino}ethyl)benzamide] were 257 to 259 °C, 1210 nM and 80%.
For `Cc1ccc(C(=O)NC(NC(=NC#N)Nc2cncnc2)C(Cl)(Cl)Cl)cc1` (stereo not drawn) [Example 48, 4-methyl-N-(2,2,2-trichloro-1-{[(cyanoimino)(5-pyrimidinylamino)methyl]amino}ethyl)benzamide], in that order: 186 to 188 °C, 200 nM and 96%.
For the molecule `CCC(CC)C(NC(=O)c1ccc(Cl)cc1)NC(=NC#N)Nc1cccnc1` (stereo not drawn) [Example 59, 4-chloro-N-(1-{[(cyanoimino)(3-pyridinylamino)methyl]amino}-2-ethylbutyl)benzamide], the melting point lay within 185 to 187 °C. In data set [1], this molecule gave an EC50 of 310 nM and an Emax of 73%.
The molecule `CC(C)CC(NC(=O)c1ccc(Cl)cc1)NC(=NC#N)Nc1cccnc1` (stereo not drawn) [Example 60, 4-chloro-N-(1-{[(cyanoimino)(3-pyridinylamino)methyl]amino}-3-methylbutyl)benzamide] had a melting point of 193 to 194 °C. In data set [1], this molecule displayed an EC50 of 1000 nM and an Emax of 62%.
Taken in the same sequence, the figures for `N#CN=C(Nc1cccnc1)NC(NC(=O)c1ccc(Cl)cc1)C1CCCCC1` (stereo not drawn) [Example 61, 4-chloro-N-[{[(cyanoimino)(3-pyridinylamino)methyl]amino}(cyclohexyl)methyl]benzamide] were 190 to 192 °C, 330 nM and 36%.
For `CC(C)(C)CC(NC(=O)c1ccc(Cl)cc1)NC(=NC#N)Nc1cccnc1` (stereo not drawn) [Example 62, 4-chloro-N-(1-{[(cyanoimino)(3-pyridinylamino)methyl]amino}-3,3-dimethylbutyl)benzamide], in that order: 181 to 183 °C, 330 nM and 81%.
`CC(C)C(NC(=O)c1ccc(Cl)cc1)NC(=NC#N)Nc1cccnc1` (stereo not drawn) [Example 63, 4-chloro-N-(1-{[(cyanoimino)(3-pyridinylamino)methyl]amino}-2-methylpropyl)benzamide] yielded a melting point of 182 to 184 °C. Also, in data set [1], the EC50 was 4400 nM and the Emax turned out to be 73%.
Taken in the same sequence, the figures for `N#CN=C(Nc1cccnc1)NC(NC(=O)c1ccc(Cl)cc1)C(F)(F)F` (stereo not drawn) [Example 64, 4-chloro-N-(1-{[(cyanoimino)(3-pyridinylamino)methyl]amino}-2,2,2-trifluoroethyl)benzamide] were 136 to 138 °C, 400 nM and 89%.
For `CCC(CC)C(NC(=O)c1ccc(Cl)cc1)NC(=C[N+](=O)[O-])Nc1cccnc1` (stereo not drawn) [Example 68, 4-chloro-N-(2-ethyl-1-{[2-nitro-1-(3-pyridinylamino)ethenyl]amino}butyl)benzamide], in that order: 192 to 193 °C, 430 nM and 99%.
`CC(C)(C)C(NC(=O)c1ccc(Cl)cc1)NC(=NC#N)Nc1cccc(F)c1` (stereo not drawn) [Example 70, 4-chloro-N-(1-{[(cyanoimino)(3-fluoroanilino)methyl]amino}-2,2-dimethylpropyl)benzamide] showed a melting point of 167 to 170 °C. In data set [1], this molecule registered an EC50 of 320 nM and an Emax of 74%.
`CCC(NC(=O)c1ccc(Cl)cc1)NC(=NC#N)Nc1cccnc1` (stereo not drawn) [Example 84, 4-chloro-N-(1-{[(cyanoimino)(3-pyridinylamino)methyl]amino}propyl)benzamide]: the melting point was 181 to 183 °C. In data set [1], this molecule had an EC50 of 6000 nM and an Emax of 69%.
For `N#CN=C(NCNC(=O)c1ccc(Cl)cc1)Nc1cccnc1` [Example 85, 4-chloro-N-({[(cyanoimino)(3-pyridinylamino)methyl]amino}methyl)benzamide], in that order: 196 to 197 °C, more than 10000 nM and less than 20%.
In turn, `CC(C)(C1CCCCC1)C(NC(=O)c1ccc(Cl)cc1)NC(=NC#N)Nc1cccnc1` (stereo not drawn) [Example 93, 4-chloro-N-(1-{[(cyanoimino)(3-pyridinylamino)methyl]amino}-2-cyclohexyl-2-methylpropyl)benzamide] returned a melting point of 181 to 183 °C. In data set [1], this molecule returned an EC50 of 140 nM and an Emax of 75%.
Taken in the same sequence, the figures for `N#CN=C(Nc1cccnc1)NC(CC12CC3CC(CC(C3)C1)C2)NC(=O)c1ccc(Cl)cc1` (stereo not drawn) [Example 95, N-(2-(1-adamantyl)-1-{[(cyanoimino)(3-pyridinylamino)methyl]amino}ethyl)-4-chlorobenzamide] were 202 to 203 °C, 840 nM and 97%.
Taken in the same sequence, the figures for `CN(C)CC(C)(C)C(NC(=O)c1ccc(Cl)cc1)NC(=NC#N)Nc1cccnc1` (stereo not drawn) [Example 97, 4-chloro-N-[1-{[(cyanoimino)(3-pyridinylamino)methyl]amino}-3-(dimethylamino)-2,2-dimethylpropyl]benzamide] were 101 to 103 °C, 1600 nM and 74%.
For `CSCCC(NC(=O)c1ccc(Cl)cc1)NC(=NC#N)Nc1cccnc1` (stereo not drawn) [Example 99, 4-chloro-N-[1-{[(cyanoimino)(3-pyridinylamino)methyl]amino}-3-(methylsulfanyl)propyl]benzamide], in that order: 104 to 105 °C, 3500 nM and 84%.
